Assay results published in ChEMBL document CHEMBL1146518, “Phenolic metabolites of Dalea versicolor that enhance antibiotic activity against model pathogenic bacteria” (2004).
≈ marks a conversion by molar mass, not a printed value. Calls of active or inactive are those of the source. No cut-off for these calls is given here.

Key:
[1] = tested on: Staphylococcus aureus; test: Antimicrobial activity against Staphylococcus aureus after 18 hrs by serial twofold dilution test; format: functional
[2] = molecular target: T1, Quinolone resistance protein NorA (Staphylococcus aureus) (UniProt P0A0J7); test: Inhibition of NorA MDR efflux pump in Staphylococcus aureus assessed as increase in antimicrobial activity of tetracycline at 10 ug/ml after 18 hrs by twofold serial dilution method
T1 sequence (whole entry): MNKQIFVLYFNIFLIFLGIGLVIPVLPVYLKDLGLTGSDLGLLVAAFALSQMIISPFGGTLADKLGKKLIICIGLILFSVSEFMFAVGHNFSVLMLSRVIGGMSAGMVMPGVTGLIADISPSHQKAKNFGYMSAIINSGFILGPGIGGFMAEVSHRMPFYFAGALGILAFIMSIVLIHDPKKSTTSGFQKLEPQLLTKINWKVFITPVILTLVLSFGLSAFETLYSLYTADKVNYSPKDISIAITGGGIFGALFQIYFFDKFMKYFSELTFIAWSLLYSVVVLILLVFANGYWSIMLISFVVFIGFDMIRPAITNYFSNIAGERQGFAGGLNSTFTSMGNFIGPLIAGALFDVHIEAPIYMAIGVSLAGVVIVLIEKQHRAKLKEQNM

[3] = molecular target: T1, Quinolone resistance protein NorA (Staphylococcus aureus); test: Inhibition of NorA MDR efflux pump in Staphylococcus aureus assessed as increase in antimicrobial activity of erythromycin at 10 ug/ml after 18 hrs by twofold serial dilution method
[4] = tested on: Bacillus cereus; test: Inhibition of NorA MDR efflux pump in Bacillus cereus assessed as fold increase in antimicrobial activity of berberine at 10 ug/ml after 24 hrs by twofold serial dilution method
[5] = molecular target: T1, Quinolone resistance protein NorA (Staphylococcus aureus); test: Inhibition of NorA MDR efflux pump in Staphylococcus aureus assessed as increase in antimicrobial activity of berberine at 10 ug/ml after 18 hrs by twofold serial dilution method

| MIC [1] [µg/mL] | Activity [2] | Activity [3] | fold change (FC) [4] | Activity [5] | SMILES |
| --- | --- | --- | --- | --- | --- |
| 7.8 (≈ 18.4 µM) | – | – | – | – | C=CC(C)(C)c1cc([C@@H]2CC(=O)c3c(O)cc(O)c(CC=C(C)C)c3O2)c(O)cc1O |
| 250 (≈ 838 µM) | Active | Active | 30 | Active | COc1c(C)c(O)c(C)c(O)c1C(=O)/C=C/c1ccccc1 |
| 31.3 (≈ 73.7 µM) | – | – | – | – | C=CC(C)(C)c1cc(C2COc3c(CC=C(C)C)c(O)cc(O)c3C2=O)c(O)cc1O (stereo not drawn) [DALVERSINOL A] |

| SMILES | MIC [1] [µg/mL] | Activity [2] | Activity [3] | fold change (FC) [4] | Activity [5] |
| --- | --- | --- | --- | --- | --- |
| COc1ccc(/C=C/c2cc(OC)cc(OC)c2)cc1 [TRISMETHOXYRESVERATROL] | 500 (≈ 1850 µM) | – | – | – | – |
